The NIST ThermoML archive (doi:10.1021/je300504f)
Where “and” joins values, the source holds several entries; their conditions need not be identical. Equal entries are not always repeated.

Assays:
[1] = Molar enthalpy of transition or fusion; conditions: Crystal; DSC
[2] = Crystal; for Normal melting temperature: DTA

FC(F)(F)C(F)(F)C(F)(F)C(F)(F)C(F)(F)C(F)(F)C(F)(F)C(F)(F)C(F)(F)C(F)(F)C(F)(F)C(F)(F)C(F)(F)C(F)(F)C(F)(F)F [perfluoropentadecane]
Conditions	Molar enthalpy of transition or fusion [kcal/mol]	Normal melting temperature [°C]
[1]	8.39	–
[2]	–	115.0

[2]
Conditions	vapor or sublimation pressure [kPa]
312.1 K	0.0006
323.2 K	0.0025
333.2 K	0.00776
338.2 K	0.0139
343.3 K	0.0238
348.2 K	0.0408
353.1 K	0.0662
358.2 K	0.1119
363.2 K	0.1796
368.2 K	0.2908

FC(F)(F)C(F)(F)C(F)(F)C(F)(F)C(F)(F)C(F)(F)C(F)(F)C(F)(F)C(F)(F)C(F)(F)C(F)(F)C(F)(F)C(F)(F)C(F)(F)C(F)(F)C(F)(F)F [tetratriacontafluorohexadecane]
Conditions	Molar enthalpy of transition or fusion [kcal/mol]	Normal melting temperature [°C]
[1]	9.25	–
[2]	–	126.6

FC(F)(F)C(F)(F)C(F)(F)C(F)(F)C(F)(F)C(F)(F)C(F)(F)C(F)(F)C(F)(F)C(F)(F)C(F)(F)C(F)(F)F [hexacosafluorododecane]
Conditions	Molar enthalpy of transition or fusion [kcal/mol]	Normal melting temperature [°C]
[1]	5.78	–
[2]	–	73.5

[2]
Conditions	vapor or sublimation pressure [kPa]
313.3 K	0.0672
318.2 K	0.1074
323.2 K	0.1781
328.2 K	0.2832
333.2 K	0.4571
338.2 K	0.7269
343.2 K	1.039
348.2 K	1.63

Fc1c(F)c(F)c(-c2c(F)c(F)c(F)c(F)c2F)c(F)c1F [perfluorobiphenyl]
Conditions	Molar enthalpy of transition or fusion [kcal/mol]	Normal melting temperature [°C]
[1]	4.9	–
[2]	–	66.5

FC(F)(F)C(F)(F)C(F)(F)C(F)(F)C(F)(F)C(F)(F)C(F)(F)C(F)(F)C(F)(F)C(F)(F)C(F)(F)C(F)(F)C(F)(F)C(F)(F)C(F)(F)C(F)(F)C(F)(F)C(F)(F)C(F)(F)C(F)(F)C(F)(F)C(F)(F)C(F)(F)C(F)(F)F [perfluorotetracosane]
Conditions	Molar enthalpy of transition or fusion [kcal/mol]	Normal melting temperature [°C]
[1]	15.1	–
[2]	–	188.0

FC(F)(F)C(F)(F)C(F)(F)C(F)(F)C(F)(F)C(F)(F)C(F)(F)C(F)(F)C(F)(F)C(F)(F)C(F)(F)C(F)(F)C(F)(F)C(F)(F)C(F)(F)C(F)(F)C(F)(F)C(F)(F)C(F)(F)C(F)(F)F [dotetracontafluoroeicosane]
Conditions	Molar enthalpy of transition or fusion [kcal/mol]	Normal melting temperature [°C]
[1]	12	–
[2]	–	163.1

FC(F)(F)C(F)(F)C(F)(F)C(F)(F)C(F)(F)C(F)(F)C(F)(F)C(F)(F)C(F)(F)C(F)(F)C(F)(F)C(F)(F)C(F)(F)C(F)(F)F [triacontafluorotetradecane]
Conditions	Molar enthalpy of transition or fusion [kcal/mol]	Normal melting temperature [°C]
[1]	7.53	–
[2]	–	102.5

[2]
Conditions	vapor or sublimation pressure
313.2 K	0.00349 kPa
318.2 K	0.00664 kPa
328.2 K	0.0191 kPa
333.2 K	0.0315 kPa
338.2 K	0.053 kPa
343.2 K	0.0971 kPa
348.2 K	0.161 kPa
353.1 K	0.2493 kPa
358.2 K	0.4128 kPa and 0.4025 kPa

FC(F)(F)C(F)(F)C(F)(F)C(F)(F)C(F)(F)C(F)(F)C(F)(F)C(F)(F)C(F)(F)C(F)(F)C(F)(F)C(F)(F)C(F)(F)F [perfluorotridecane]
Conditions	Molar enthalpy of transition or fusion [kcal/mol]	Normal melting temperature [°C]
[1]	6.67	–
[2]	–	88.6

[2]
Conditions	vapor or sublimation pressure [kPa]
313.2 K	0.0143
318.4 K	0.0253
323.4 K	0.0443
329.3 K	0.0796
333.5 K	0.1199
339.3 K	0.2077
343.3 K	0.297
349.2 K	0.5217
354.1 K	0.8357
358.2 K	1.147
